Calls of active or inactive are those of the source.
What was measured:
Type in all cases: functional, organism-based
[1] = tested on: Streptomyces viridochromogenes; assay: Antimicrobial activity against Streptomyces viridochromogenes at 40 ug after 24 hrs by agar diffusion method
[2] = tested on: Desmodesmus subspicatus; assay: Antimicrobial activity against Scenedesmus subspicatus at 40 ug after 24 hrs by agar diffusion method
[3] = tested on: Escherichia coli; assay: Antimicrobial activity against Escherichia coli at 40 ug after 24 hrs by agar diffusion method
[4] = tested on: Chlorella sorokiniana; assay: Antimicrobial activity against Chlorella sorokiniana at 40 ug after 24 hrs by agar diffusion method
[5] = tested on: Staphylococcus aureus; assay: Antimicrobial activity against Staphylococcus aureus at 40 ug after 24 hrs by agar diffusion method
[6] = tested on: Bacillus subtilis; assay: Antimicrobial activity against Bacillus subtilis at 40 ug after 24 hrs by agar diffusion method
[7] = tested on: Candida albicans; assay: Antimicrobial activity against Candida albicans at 40 ug after 24 hrs by agar diffusion method
[8] = tested on: Chlorella vulgaris; assay: Antimicrobial activity against Chlorella vulgaris at 40 ug after 24 hrs by agar diffusion method

Measured: Activity

CC(=O)O[C@H](C)[C@@H]1c2cc3cccc(O[C@@H]4O[C@H](C(=O)O)[C@@H](O)[C@H](O)[C@H]4O)c3c(O)c2C(=O)C[C@]1(C)O
inactive: all assays above
